Experimental data as given in patent US12459951B2, “Compounds that interact with RAS superfamily proteins for treatment of cancers, inflammatory diseases, rasopathies, and fibrotic disease” (SHY Therapeutics, LLC, priority 2022, dated 2025).

How the values were obtained:
[1] = test system: NCI-H358 (expressing KRas G12C mutant) tumors; assay: In vivo efficacy in NCI-H358 (G12C) model; set-up: species or system Athymic Nude-Foxn1 nu mice; settings: daily dose 50 mg/kg
Protocol: Biological Example 8: In Vivo Efficacy of Compound 6 in NCI-H358 (G12C) Model
Cell lines: Human tumor-derived non-small cell lung cancer cell lines NCI-H358 (expressing KRas G12C mutant was grown in RPMI-1640 Medium, ATCC 30-2001, supplemented with 10% fetal bovine serum (FBS) and Penicillin/Streptomycin 100U/ml (Lonza BioWhittaker, Morrisville, NC). Cells were trypsinized, washed in sterile PBS, counted, and resuspended in a 1:1 mix PBS/HC Matrigel (Corning, Glendale, AZ) at a concentration of 25×10^6/ml. Cells were kept on ice until injection.
The right flank of Athymic Nude-Foxn1 nu mice (The Jackson Laboratory, Harbor, ME) was injected subcutaneously with 5×10^6 cells in 200 μl of sterile PBS/Matrigel solution. Tumor mass was first measured 4 days after injection and mice were randomized on the basis of these measurements. Treatment was begun when tumors reached 150-200 mm^3, ^˜5-8 days after injection. Compound 6 was formulated in 20% captisol (50 mM citrate buffer, PH 5.0), and mice received either daily dose of vehicle or 50 mg/kg body weight of the formulated compound 6. Tumors were measured using digital calipers and volume (v) was calculated using the formula V=(W(2)×L)/2 where V is tumor volume, W is tumor width, and L is tumor length. Mice were housed in accordance with IACUC guidelines. The calculated Tumor Growth Inhibition (TGI) was 80%.

[2] = test system: active/cleaved caspase 9; assay: Cell-based caspase activation assay (western blot); set-up: species or system human

SMILES	Tumor Growth Inhibition (TGI) ([1]; NCI-H358 subcutaneous tumors in nude mice, 20% captisol formulation)	Weight loss ([1]; NCI-H358 tumor-bearing nude mice)	Caspase 9 activation ([2]; HCC1806, after 48 hours)	Caspase 9 activation ([2]; NCI-H358, after 48 hours)
COc1cc(Nc2nc(-c3nccn3C)nn3cc(-c4ccn(C(C)C)n4)c(C)c23)ncn1 [Compound 6, 6-(1-Isopropyl-1H-pyrazol-3-yl)-N-(6-methoxypyrimidin-4-yl)-5-methyl-2-(1-methyl-1H-imidazol-2-yl)pyrrolo[2,1-f][1,2,4]triazin-4-amine]	80%	No weight loss was detected	–	–
Cc1c(-c2ccn(C)n2)cn2nc(-c3nccn3C)nc(Nc3cc4n(n3)CCO4)c12 [Compound 124, N-(5-Methyl-2-(1-methyl-1H-imidazol-2-yl)-6-(1-methyl-1H-pyrazol-3-yl)pyrrolo[2,1-f][1,2,4]triazin-4-yl)-2,3-dihydropyrazolo[5,1-b]oxazol-6-amine]	–	–	yes	yes
